The values that follow come from PubChem BioAssay AID686969 (The Scripps Research Institute Molecular Screening Center, 2013).

In this test the target is methionyl-tRNA synthetase (Trypanosoma brucei). Nature of the test: T. brucei MetRS inhibitors, orthogonal readout, late-stage follow-up, orthogonal assay for T. brucei MetRS inhibitor project, biochemical, fluorescence polarization, dose response (AID 686969).

Structures are written as SMILES. pIC50: −log10 of the molar value. Calls of active or inactive are those of the source. No rule for the calls is given here.

As a reminder, the pIC50 is the negative decadic logarithm of the IC50, by convention in mol/L. `O=C(NCc1nc2ccccc2[nH]1)C1=C[C@H](c2ccc(Br)cc2)C[C@H](OCCCCO)O1`: the pIC50 is 5.51.
In the case of `O=C(Nc1ccc(F)c(Cl)c1)C1CC(=O)n2c(nc3ccccc32)N1` (stereo not drawn), the pIC50 is 5.54.
Still for that read-out and setting: next, `O=C(NCc1nc2ccccc2[nH]1)C1=C[C@@H](c2ccccc2)C[C@@H](OCc2ccc(CO)cc2)O1`: 5.66; `O=C(Cn1cnc2ccccc21)Nc1cccc([N+](=O)[O-])c1`: 5.55.
Same read-out and setting: the figure for `O=C(C[C@H]1C(=O)N(Cc2ccccc2)C[C@@H]1c1ccc(Br)cc1)Nc1ccc(Br)cc1` is 5.53.
As to `O=C(CC=NOCc1ccc([N+](=O)[O-])cc1)Nc1ccc(Cl)cc1`, the pIC50 was 5.54.
As for `CN1CC(=O)N2C(c3cccc([N+](=O)[O-])c3)c3[nH]c4ccccc4c3C[C@H]2C1=O` (stereo partly drawn), the pIC50 was 6.14.
Same read-out and setting: next, `O=C(NCc1nc2ccccc2[nH]1)C1=C[C@@H](C2CC2)C[C@@H](OCc2ccc(CO)cc2)O1`: 5.58; `COc1cccc(NC(=O)CSc2nnc3c(n2)[nH]c2ccc(C)cc23)c1`: 7.12.
On the same count and under the same terms, the figure for `Oc1c(Cl)cc(Cl)cc1CNc1nc2ccccc2[nH]1` is 5.75.
Take `CN(CC(=O)Nc1ccc(Cl)cc1)C(=O)c1ccc(-n2cncn2)c([N+](=O)[O-])c1`: the pIC50 is 5.72.
For `O=C(NCc1nc2ccccc2[nH]1)C1=C[C@H](c2csc3ccccc23)C[C@H](OCCCCO)O1`, the pIC50 is 5.75.
On to `O=C1[C@@H]2Cc3c([nH]c4ccccc34)C(c3cccc([N+](=O)[O-])c3)N2C(=O)CN1CCCO` (stereo partly drawn), for which the pIC50 was 6.03.
Consider `O=C(CC=NOCc1ccc([N+](=O)[O-])cc1)Nc1ccc(Br)cc1`, for which the pIC50 was 5.88.
Still for that read-out and setting: the figure for `Brc1cnc2nc(SCc3nc4ccccc4[nH]3)[nH]c2c1` is 5.37; for `COc1ccc2[nH]c3nc(SCC(=O)Nc4ccc5c(c4)OCO5)nnc3c2c1` it is 6.03; for `O=C(CC(=O)Nc1cccc(Cl)c1)NN=Cc1ccccc1` it is 5.22.
In the case of `COc1ccccc1NS(=O)(=O)c1cccc(NC(=O)Nc2ccccc2)c1`, the pIC50 is 6.22.
With `O=C1CC(N(CCc2ccccc2)C(=S)Nc2ccccc2)C(=O)N1c1ccc(Br)cc1` (stereo not drawn), the pIC50 is 6.25.
Same read-out and setting: the figure for `C[C@H](O)[C@@H]1C(=O)N2CCc3c([nH]c4ccccc34)[C@@H]2C[C@@H]1N(C)Cc1ccc2c(c1)OCO2` is 6.36; for `O=C(CN1CCSC1=NCc1ccccc1)c1ccc(Cl)c(Cl)c1` it is 5.41.
Consider `CCO[C@@H]1OC(C(=O)NCc2nc3ccccc3[nH]2)=C[C@H](c2ccc(Br)cc2)[C@H]1CCCO`, for which the IC50 result was “inactive”.
With `COc1ccc(OCC(O)CNC(=O)Nc2ccc(Cl)cc2)cc1` (stereo not drawn), the pIC50 is 5.12.
Take `COc1ccccc1-n1c(SCC(=O)Nc2ccc(Cl)cc2)nc(O)c(Cc2ccccc2)c1=O`: the pIC50 is 5.34.
For the compound `O=C(NCc1nc2ccccc2[nH]1)C1=C[C@@H](c2ccc(Br)cc2)C[C@@H](OCCCCO)O1`, the pIC50 is 5.94.
Same read-out and setting: the figure for `CC(C)OCCCN1CC(=O)N2C(c3cccc([N+](=O)[O-])c3)c3[nH]c4ccccc4c3C[C@H]2C1=O` (stereo partly drawn) is 5.83.
For the compound `O=C(NCc1nc2ccccc2[nH]1)C1=C[C@H](c2ccccc2)C[C@H](OCc2ccc(CO)cc2)O1`, the IC50 result is “inactive”.
In the case of `O=C(NCc1nc2ccccc2[nH]1)C1=C[C@@H](c2ccc3c(c2)OCO3)C[C@@H](OCCCCO)O1`, the pIC50 is 5.69.
Consider `CC(C)(C)[C@H]1C=C(C(=O)NCc2nc3ccccc3[nH]2)O[C@@H](OCc2ccc(CO)cc2)C1`, for which the pIC50 was 5.27.
For the compound `O=C1CC(SCc2nc3ccccc3[nH]2)C(=O)N1c1cccc(Cl)c1` (stereo not drawn), the IC50 entry is “inactive”.
On to `CN(Cc1cc(Cl)cc(Cl)c1)[C@H]1C[C@H]2c3[nH]c4ccccc4c3CCN2C(=O)[C@H]1CO`, for which the pIC50 was 6.04.
Turning to `O=C(NNC(=O)c1ccc(-n2cncn2)c([N+](=O)[O-])c1)c1ccc(Cl)cc1`, the pIC50 is 5.13.
Turning to `CCOC(=O)N1CCC(Nc2c(Nc3ccc(F)cc3)c(=O)c2=O)CC1`, the pIC50 was 5.14.
On to `Cc1ccc(NC(=O)CN(C)C(=O)CCSc2ccc(F)cc2)cc1`, for which the pIC50 is 5.24.
Turning to `O=C(NCc1nc2ccccc2[nH]1)C1=C[C@@H](c2csc3ccccc23)C[C@@H](OCCCCO)O1`, the pIC50 is 5.33.
As to `CCCCCCCCCC1NC(C(=O)O)Cc2c1[nH]c1ccccc21` (stereo not drawn), the pIC50 is 5.37.
`Clc1ccc(-c2nnc(SCc3nc4ccccc4[nH]3)o2)c(Cl)c1`: the pIC50 is 6.03.
`O=C(NCc1nc2ccccc2[nH]1)C1=C[C@H](c2ccc3c(c2)OCO3)C[C@H](OCCCCO)O1`: the negative-log IC50 (pIC50) is 5.21.
`O=C(N/C(=C\c1cccnc1)c1nc2ccccc2[nH]1)c1cccc(Br)c1`: the pIC50 is 5.25.
With `CC(C)(C)[C@@H]1C=C(C(=O)NCc2nc3ccccc3[nH]2)O[C@H](OCc2ccc(CO)cc2)C1`, the pIC50 was 5.09.
In the case of `Cc1[nH]c2ccc(Br)cc2c(=O)c1CN1CCCCCC1`, the IC50 entry is “inactive”.
For `CC(=O)c1c[nH]c(C(=O)NCc2cccc(C(F)(F)F)c2)c1`, the pIC50 is 5.65.
Consider `O=C(NCc1nc2ccccc2[nH]1)C1=C[C@H](C2CC2)C[C@H](OCc2ccc(CO)cc2)O1`, for which the pIC50 is 5.09.
Same read-out and setting: next, `O=C(CCC(=O)Nc1cccc([N+](=O)[O-])c1)NN=Cc1cccs1`: 5.08.
Regarding `CC(=O)c1ccc(N2CCN(C(=O)CCCn3c(=O)[nH]c4ccc(Br)cc4c3=O)CC2)cc1`, the pIC50 was 6.06.
With `O=C(NNC(=O)c1cc(-c2ccc(Cl)c(Cl)c2)nc2ccccc12)Nc1ccccc1`, the pIC50 is 5.83.
On to `Clc1ccc(OCCSCc2nc3ccccc3[nH]2)cc1`, for which the pIC50 is 5.03.
On the same count and under the same terms, next, `O=C(NCc1nc2ccccc2[nH]1)C1=C[C@H](c2ccc(Br)cc2)C[C@H](OCc2ccc(CO)cc2)O1`: 5.45; `O=C(NCc1nc2ccccc2[nH]1)C1=C[C@@H](c2ccc(Br)cc2)C[C@@H](OCc2ccc(CO)cc2)O1`: 5.69; `O=C(Cn1cc(C(=O)C(=O)N2CCOCC2)c2ccccc21)Nc1cccc(C(F)(F)F)c1`: 6.53.
For the compound `O=C(NCCc1nc2ccccc2[nH]1)c1ccc(Cl)c([N+](=O)[O-])c1`, the pIC50 is 6.48.
Turning to `CCO[C@H]1OC(C(=O)NCc2nc3ccccc3[nH]2)=C[C@@H](c2ccc(Br)cc2)[C@@H]1CCCO`, the pIC50 is 5.03.
For the compound `CC(CC(=O)Nc1cccc(Br)c1)=NNC(=O)c1ccc(O)cc1O`, the pIC50 was 5.63.
